Measurements: patent US7829665B2 (priority 2005, dated 2010)

Each molecule was assayed against T1, full-length NS3/NS4A-2 (HCV NS3 protease) (Hepatitis C virus genotype 1a, UniProt P27958) (assay: NS3-NS4 protease assay / NS3 inhibition assay (RETS1 substrate, fluorescence kinetic read)). Conditions: Table 22; read-out: NS3-NS4 IC50.
T1 construct: Recombinant E. coli or Baculovirus full-length NS3 was diluted to 3.33 μM with assay buffer; made in house; host or cells: E. coli or baculovirus (BV) expression system
Assay type: biochemical
Summary of the method: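 Ki values come from IC50 fits corrected via Ki=IC50/(1+[S]/Km), with Km 2.03 μM for E. coli and 1.74 μM for baculovirus full-length NS3. Enzyme (2 or 3 nM NS3, respectively, complexed with NS4A-2) sat with compound, top concentration 50 microM, for 10 min at room temperature. Cleavage of RETS1 (8 μM working solution) was then followed by fluorescence (335/495 nm) over 30 min.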

T1 sequence (P27958 1027-1657): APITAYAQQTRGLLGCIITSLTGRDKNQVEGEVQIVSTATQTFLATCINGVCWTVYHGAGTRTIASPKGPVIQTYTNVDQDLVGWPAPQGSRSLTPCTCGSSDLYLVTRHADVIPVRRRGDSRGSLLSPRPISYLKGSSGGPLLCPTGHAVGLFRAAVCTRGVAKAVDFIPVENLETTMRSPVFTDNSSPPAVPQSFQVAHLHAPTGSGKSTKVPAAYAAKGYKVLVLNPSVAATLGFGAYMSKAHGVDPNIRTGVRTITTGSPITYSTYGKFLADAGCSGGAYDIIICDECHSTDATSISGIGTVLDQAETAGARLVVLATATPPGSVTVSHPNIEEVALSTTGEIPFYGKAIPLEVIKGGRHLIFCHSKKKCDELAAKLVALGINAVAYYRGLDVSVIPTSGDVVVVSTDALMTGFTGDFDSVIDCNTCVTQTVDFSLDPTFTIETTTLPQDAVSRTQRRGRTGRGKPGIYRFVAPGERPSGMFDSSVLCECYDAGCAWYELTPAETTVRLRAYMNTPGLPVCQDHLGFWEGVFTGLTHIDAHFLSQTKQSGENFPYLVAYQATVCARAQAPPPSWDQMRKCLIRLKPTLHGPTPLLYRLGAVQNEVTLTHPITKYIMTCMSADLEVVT

SMILES	IC50 [µM]
CC(C)(C)OC(=O)N[C@H]1CCCCC/C=C\[C@@H]2C[C@@]2(C(=O)NCCc2ccccc2)NC(=O)[C@@H]2CCCN2C1=O [Compound 2320]	< 0.1
CC(C)CNC(=O)[C@@]12C[C@H]1/C=C\CCCCC[C@H](NC(=O)OC(C)(C)C)C(=O)N1CCC[C@H]1C(=O)N2 [Compound 2314]	< 1

Same assay, conditions: Table 25; read-out: NS3-NS4 IC50

SMILES	IC50 [µM]
CC(C)(C)OC(=O)N[C@H]1CCCCC/C=C\[C@@H]2C[C@@]2(C(=O)N[S@+]([O-])C(C)(C)C)NC(=O)[C@@H]2C[C@@H](OC(=O)N3Cc4ccccc4C3)CN2C1=O [Compound 2604]	> 10

Same assay, conditions: recombinant E. coli or Baculovirus full-length NS3 with NS4A-2; read-out: NS3-NS4 IC50

SMILES	IC50 [µM]
CC(C)(C)OC(=O)N[C@H]1CCCCC/C=C\[C@@H]2C[C@@]2(C(=O)NS(=O)(=O)c2cc(Cl)ccc2F)NC(=O)[C@@H]2CCCN2C1=O [Compound 2150]	< 10
C[C@H](NC(=O)O[C@@H]1C[C@H]2C(=O)N[C@]3(C(=O)O)C[C@H]3/C=C\CCCCC[C@H](NC(=O)OC(C)(C)C)C(=O)N2C1)c1ccc(F)cn1 [Compound 147]	> 10
CC(C)(C)OC(=O)N[C@H]1CCCCC/C=C\[C@@H]2C[C@@]2(C(=O)NS(=O)(=O)N2CCCCC2c2cccnc2)NC(=O)[C@@H]2CCCN2C1=O (stereo partly drawn) [Compound 2222]	< 1
CC(C)(C)OC(=O)N[C@H]1CCCCC/C=C\[C@@H]2C[C@@]2(C(=O)NS(=O)(=O)c2cccc(Br)c2)NC(=O)[C@@H]2CCCN2C1=O [Compound 2112]	< 10
COc1ccc(S(=O)(=O)NC(=O)[C@@]23C[C@H]2/C=C\CCCCC[C@H](NC(=O)OC(C)(C)C)C(=O)N2CCC[C@H]2C(=O)N3)cc1 [Compound 2133]	< 10
CC(C)(C)OC(=O)N[C@H]1CCCCC/C=C\[C@@H]2C[C@@]2(C(=O)O)NC(=O)[C@@H]2C[C@@H](OC(=O)NCc3ccc(F)cn3)CN2C1=O [Compound 151]	< 10
CN(Cc1ccccc1)S(=O)(=O)NC(=O)[C@@]12C[C@H]1/C=C\CCCCC[C@H](NC(=O)OC(C)(C)C)C(=O)N1CCC[C@H]1C(=O)N2 [Compound 417]	< 10
O=C(N[C@H]1CCCCC/C=C\[C@@H]2C[C@@]2(C(=O)NS(=O)(=O)Nc2ccc(Cl)cc2)NC(=O)[C@@H]2CCCN2C1=O)C1CCC1 [Compound 427]	> 10
CC(C)(C)OC(=O)N[C@H]1CCCCC/C=C\[C@@H]2C[C@@]2(C(=O)NS(=O)(=O)c2ccc(Cl)s2)NC(=O)[C@@H]2CCCN2C1=O [Compound 2132]	< 10
CC(C)(C)OC(=O)N[C@H]1CCCCC/C=C\[C@@H]2C[C@@]2(C(=O)NCCN2CCOCC2)NC(=O)[C@@H]2C[C@@H](OC(=O)N3Cc4cccc(F)c4C3)CN2C1=O [Compound 607]	> 10
CC(C)(C)OC(=O)N[C@H]1CCCCC/C=C\[C@@H]2C[C@@]2(C(=O)NS(=O)(=O)NCCc2ccccn2)NC(=O)[C@@H]2CCCN2C1=O [Compound 423]	< 10
CC(C)(C)OC(=O)N[C@H]1CCCCC/C=C\[C@@H]2C[C@@]2(C(=O)NS(=O)(=O)Cc2ccccc2)NC(=O)[C@@H]2CCCN2C1=O [Compound 2135]	< 1
CC[C@@H]1C[C@H]2C(=O)N[C@]3(C(=O)NS(=O)(=O)Nc4ccc(Cl)cc4)C[C@H]3/C=C\CCCCC[C@H](NC(=O)C3CC3)C(=O)N2C1 [Compound 429]	< 10
CC(C)(C)OC(=O)N[C@H]1CCCCC/C=C\[C@@H]2C[C@@]2(C(=O)NS(=O)(=O)Nc2ccncc2)NC(=O)[C@@H]2CCCN2C1=O [Compound 407]	> 10
CC(C)(C)OC(=O)N[C@H]1CCCCC/C=C\[C@@H]2C[C@@]2(C(=O)NS(=O)(=O)c2cnc(Cl)c(Br)c2)NC(=O)[C@@H]2CCCN2C1=O [Compound 2154]	< 10
CC(C)(C)OC(=O)N[C@H]1CCCCC/C=C\[C@@H]2C[C@@]2(C(=O)N[S@@+]([O-])C(C)(C)C)NC(=O)[C@@H]2CCCN2C1=O [Compound 2401, (1S,4R,6S,14S)tert-Butyl 4-((S)-2-methylpropane-2-sulfinyl)-aminocarbonyl-2,15-dioxo-3,16-diaza-tricyclo[14.3.0.0^4,6]nonadec-7-ene-14-yl carbamate]	< 0.1
O=C(N[C@H]1CCCCC/C=C\[C@@H]2C[C@@]2(C(=O)NS(=O)(=O)c2ccccc2)NC(=O)C2Cc3cc(Oc4cccc(Cl)c4)ccc3CN2C1=O)OC1CCCC1 (stereo partly drawn) [Compound 2004, Cyclopentyl (1aS,9S,19aR,Z)-15-(3-chlorophenoxy)-10,18-dioxo-19a-(phenylsulfonylcarbamoyl)-1a,4,5,6,7,8,9,10,12,17,17a,18,19,19a-tetradecahydro-1H-11,14-diaza-bicyclo[13.1.0]hexadeca-1(15), 2-dieno[11,12-b]isoquinolin-9-ylcarbamate]	< 1
COc1cccc(NS(=O)(=O)NC(=O)[C@@]23C[C@H]2/C=C\CCCCC[C@H](NC(=O)OC(C)(C)C)C(=O)N2CCC[C@H]2C(=O)N3)c1 [Compound 2240]	< 1

SMILES	IC50 [µM]
O=C(N[C@H]1CCCCC/C=C\[C@@H]2C[C@@]2(C(=O)O)NC(=O)C2Cc3cc(Oc4cccc(Cl)c4)ccc3CN2C1=O)OC1CCCC1 (stereo partly drawn) [Compound 2002, (Z)-15-(3-chlorophenoxy)-9-(cyclopentyloxycarbonyl)-10,18-dioxo-1a,4,5,6,7,8,9,10,12,17,17a,18,19,19a-tetradecahydro-1H-11,14-diaza-bicyclo[13.1.0]hexadeca-1(16), 2-dieno[11,12-b]isoquinoline-19a-carboxylic acid]	< 10
CC(C)(C)OC(=O)N[C@H]1CCCCC/C=C\[C@@H]2C[C@@]2(C(=O)NS(=O)(=O)C2CCCCC2)NC(=O)[C@@H]2CCCN2C1=O [Compound 2121]	< 1
CC1CCCC(C)N1S(=O)(=O)NC(=O)[C@@]12C[C@H]1/C=C\CCCCC[C@H](NC(=O)OC(C)(C)C)C(=O)N1CCC[C@H]1C(=O)N2 (stereo partly drawn) [Compound 2223]	< 1
CC(C)(C)OC(=O)N[C@H]1CCCCC/C=C\[C@@H]2C[C@@]2(C(=O)NS(=O)(=O)N(CCC#N)C2CC2)NC(=O)[C@@H]2CCCN2C1=O [Compound 2210]	< 1
O=C(N[C@H]1CCCCC/C=C\[C@@H]2C[C@@]2(C(=O)NS(=O)(=O)Nc2ccc(Cl)cc2)NC(=O)[C@@H]2CCCN2C1=O)OC1CCCC1 [Compound 420]	> 10
COc1c(C(=O)O)csc1S(=O)(=O)NC(=O)[C@@]12C[C@H]1/C=C\CCCCC[C@H](NC(=O)OC(C)(C)C)C(=O)N1CCC[C@H]1C(=O)N2 [Compound 311]	< 10
CCOC(=O)[C@@]12C[C@H]1/C=C\CCCCC[C@H](N)C(=O)N1C[C@H](OC(=O)N3Cc4ccc(OCCNC(C)C)cc4C3)C[C@H]1C(=O)N2 [Compound 128]	> 10
COc1ccccc1CCNS(=O)(=O)NC(=O)[C@@]12C[C@H]1/C=C\CCCCC[C@H](NC(=O)OC(C)(C)C)C(=O)N1CCC[C@H]1C(=O)N2 [Compound 415]	> 10
CS(=O)(=O)NC(=O)[C@@]12C[C@H]1/C=C\CCCCC[C@H](NC(=O)OC1CCCC1)C(=O)N1Cc3ccc(Oc4cccc(Cl)c4)cc3CC1C(=O)N2 (stereo partly drawn) [Compound 2003, Cyclopentyl (1aS,9S,19aR,Z)-15-(3-chlorophenoxy)-19a-(methylsulfonylcarbamoyl)-10,18-dioxo-1a,4,5,6,7,8,9,10,12,17,17a,18,19,19a-tetradecahydro-1H-11,14-diaza-bicyclo[13.1.0]hexadeca-1(15), 2-dieno[11,12-b]isoquinolin-9-ylcarbamate]	< 10
O=C(N[C@H]1CCCCCCC[C@@H]2C[C@@]2(C(=O)NS(=O)(=O)c2ccccc2)NC(=O)C2Cc3cc(Oc4cccc(Cl)c4)ccc3CN2C1=O)OC1CCCC1 (stereo partly drawn) [Compound 2010, Cyclopentyl (1aR,9S,19aR)-15-(3-chlorophenoxy)-10,18-dioxo-19a-(phenylsulfonylcarbamoyl)-1a,2,3,4,5,6,7,8,9,10,12,17,17a,18,19,19a-hexadecahydro-1H-2,5-diaza-bicyclo[13.1.0]hexadec-1(15)-eno[5,4-b]isoquinolin-9-ylcarbamate]	< 10
C[C@H](NC(=O)[C@@]12C[C@H]1/C=C\CCCCC[C@H](NC(=O)OC(C)(C)C)C(=O)N1CCC[C@H]1C(=O)N2)c1ccncc1 [Compound 501]	> 10
CCOC(=O)[C@@]12C[C@H]1/C=C\CCCCC[C@H](NC(=O)OC(C)(C)C)C(=O)N1C[C@H](OC(=O)N3Cc4ccc(OCCN5CCOCC5)cc4C3)C[C@H]1C(=O)N2 [Compound 124]	< 10
CC(C)(C)OC(=O)N[C@H]1CCCCC/C=C\[C@@H]2C[C@@]2(CNS(=O)(=O)C2CC2)NC(=O)[C@@H]2C[C@@H](OC(=O)N3Cc4cccc(F)c4C3)CN2C1=O [Compound 154]	< 10
C=CCC1(S(=O)(=O)NC(=O)[C@@]23C[C@H]2/C=C\CCCCC[C@H](NC(=O)OC(C)(C)C)C(=O)N2CCC[C@H]2C(=O)N3)CC1 [Compound 305]	< 10
CC(C)(C)OC(=O)N[C@H]1CCCCCCC[C@@H]2C[C@@]2(C(=O)O)NC(=O)C2Cc3ccccc3CN2C1=O (stereo partly drawn) [Compound 2011, (1aR,9S,19aR)-9-(tert-butoxycarbonyl)-10,18-dioxo-1a,2,3,4,5,6,7,8,9,10,12,17,17a,18,19,19a-hexadecahydro-1H-2,5-diaza-bicyclo[13.1.0]hexadec-1(15)-eno[5,4-b]isoquinoline-19a-carboxylic acid]	> 10
COc1cccc(S(=O)(=O)NC(=O)[C@@]23C[C@H]2/C=C\CCCCC[C@H](NC(=O)OC(C)(C)C)C(=O)N2CCC[C@H]2C(=O)N3)c1 [Compound 2116]	< 10
COc1ccccc1NS(=O)(=O)NC(=O)[C@@]12C[C@H]1/C=C\CCCCC[C@H](NC(=O)OC(C)(C)C)C(=O)N1CCC[C@H]1C(=O)N2 [Compound 2236]	< 1
COc1ccc(S(=O)(=O)NC(=O)[C@@]23C[C@H]2/C=C\CCCCC[C@H](NC(=O)OC2CCCC2)C(=O)N2C[C@H](OC(=O)N4CCc5ccccc5C4)C[C@H]2C(=O)N3)cc1 [Compound 120]	< 0.1
